Consider six compounds from patent publication US9669242B2, “Compositions containing at least two phenolic compounds, a lipid-soluble antioxidant and at least one hydrotrope for cosmetic use” (L'OREAL, priority 2013, dated 2017).

Series [1] can be described thus: Solubility of baicalin in organic solvent PEG-4. Format: physicochemical. An excerpt:
Crystallization or precipitation occurs after mixing the glycol phase and water phase.

A short description of series [2]: Oxygen Radical Absorbance Capacity (ORAC) assay. As to conditions: individual values, known activity of each antioxidant. It counts as biochemical.
Description: The ORAC assay measures the oxidative degradation of the fluorescent probe (fluorescein) after being mixed with free radical generators such as azo-initiator compounds (2,2′-Azobis(2-amidinopropane)dihydrochloride, AAPH). Azo-initiators are considered to produce the peroxyl radical by heating, which damages the fluorescent molecule, resulting in the loss of fluorescence. Antioxidants are considered to protect the fluorescent molecule from the oxidative degeneration. By quantifying the decay of fluorescence using a fluorometer, the degree of protection is determined comparing with a standard control antioxidant Trolox. The result is expressed in μmol equivalent of Trolox per gram of sample (i.e., μmolTE/g).
To test samples by using ORAC, compounds are dissolved into water-based NaH2PO4 buffer.
Series [3] in a line: pH stability of baicalin in water. Format: physicochemical.
Series [4] is described as follows: Solubility of phenolic compounds and caffeine in water without hydrotropes. The following applies: for solubility: in water. The text has this:
Baicalin, a component of Chinese medicinal herb Huang-chin, is a flavone, a type of flavonoid.

The nature of series [5]: HORAC assay (hydroxyl radical averting capacity). Format: biochemical. The following applies: individual values, known activity of each antioxidant.
Description: The Varioskan Flash is employed for the quantification of the capacity of an antioxidant to avert the hydroxyl radical. The hydroxyl radical, generated from hydrogen peroxide and Cobalt (II) fluoride, will quench a fluorescent probe by a hydrogen atom transfer reaction. In the presence of an antioxidant, however, the molecule will chelate the Co(II), preventing the generation of the hydroxyl radical and initially block or prevent the quenching of the probe, causing a delay in the fluorescence decay profile. The area under the fluorescence decay curves for samples with and without the presence of an antioxidant molecule are compared to that of a standard reference material and the hydroxyl radical averting capacity is determined
By quantifying the decay of fluorescence using a fluorometer, the degree of protection is determined by comparison with a standard control antioxidant Gallic Acid (standard reference material). The result is expressed in μmol equivalent of Gallic Acid per gram of sample (i.e., μmolGAE/g).
To test samples by using HORAC, compounds are dissolved into water-based NaH2PO4 buffer.
Series [6] in a line: Solubility in water with hydrotropes (nicotinamide, caffeine). As to conditions: 5% nicotinamide and 5% caffeine.

Where two headings read alike, the source gives them in different places.

On to `O=C(O)[C@H]1O[C@@H](Oc2cc3oc(-c4ccccc4)cc(=O)c3c(O)c2O)[C@H](O)[C@@H](O)[C@@H]1O` [Baicalin], for which the “baicalin dissolved by PEG-4” value in series [1] is reported as 3%. Besides, the ORAC in series [2] is listed as 4759 μmolTE/g. In series [3], the “pH at which degradation happens” value was over 5. Also, in series [4] (at its natural pH ~4.5), the solubility in water was under 0.01%. Moreover, the solubility in series [4] (pH 3) came out at 0.0016%; in series [4] (pH 3.5) it was 0.0021%; in series [4] (pH 4), 0.0040%; in series [4] (pH 4.5), 0.0084%; in series [4] (pH 5), 0.035%. This compound had a water solubility in series [4] (no hydrotrope) of under 0.01%. The “Solubility in water without hydrotropes” value in series [4] (without hydrotropes) is recorded as <0.01 % (w/w). This compound yielded an HORAC in series [5] of 2592 μmolGAE/g.

In the case of `O=c1oc2c(O)c(O)cc3c(=O)oc4c(O)c(O)cc1c4c23` [Ellagic acid], the “Solubility in water without hydrotropes” value in series [4] is listed as <0.001 % (w/w).

As for `COc1ccc([C@@H]2CC(=O)c3c(O)cc(O[C@@H]4O[C@H](CO)[C@@H](O)[C@H](O)[C@H]4O[C@@H]4O[C@@H](C)[C@H](O)[C@@H](O)[C@H]4O)cc3O2)cc1O` [Neohesperidin], in series [4], the “Solubility in water without hydrotropes” value is <0.05 % (w/w).

For tocopherol [VIT. E (tocopherol)], the ORAC in series [2] was 1000 μmolTE/g.

For `O=C1c2c(O)cc(O)cc2O[C@H](c2ccc(O)c(O)c2)[C@H]1O` [Taxifolin], the “Solubility in water without hydrotropes” value in series [4] (without hydrotropes) was <0.1 % (w/w). Further, the “Solubility in water with hydrotropes” value in series [6] is reported as >1 % (w/w).

On to `Oc1ccc(C=Cc2cc(O)cc(O)c2)cc1` [Resveratrol], for which the “Solubility in water without hydrotropes” value in series [4] was <0.005 % (w/w).
